Laboratory results as given in PubChem BioAssay (NCI).
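Growth conditions: 96-well plates. Treatment: test compound, 48 hours, 5 concentrations. Analysis: linear interpolation between bracketing concentrations; unreached endpoints set to highest concentration. TGI marks complete inhibition of growth.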

Assays:
Assay in all cases: growth of human tumour cells (NCI), 48 h
UACC-257 melanoma = test system: UACC-257 melanoma
UACC-62 melanoma = test system: UACC-62 melanoma
M14 melanoma = test system: M14 melanoma
CAKI-1 renal = test system: CAKI-1 renal
CCRF-CEM leukemia = test system: CCRF-CEM leukemia
MCF7 breast = test system: MCF7 breast
OVCAR-8 ovarian = test system: OVCAR-8 ovarian
SN12C renal = test system: SN12C renal
BT-549 breast = test system: BT-549 breast
HOP-62 NSCLC = test system: HOP-62 NSCLC
A498 renal = test system: A498 renal
HT29 colon = test system: HT29 colon
NCI-H522 lung = test system: NCI-H522 lung
HL-60(TB) leukemia = test system: HL-60(TB) leukemia
MDA-MB-435 = test system: MDA-MB-435
RPMI-8226 leukemia = test system: RPMI-8226 leukemia
A549 NSCLC = test system: A549 NSCLC
SW-620 colon = test system: SW-620 colon
SNB-19 CNS = test system: SNB-19 CNS
LOX IMVI melanoma = test system: LOX IMVI melanoma
TK-10 renal = test system: TK-10 renal
MALME-3M melanoma = test system: MALME-3M melanoma
IGROV1 ovarian = test system: IGROV1 ovarian
SK-MEL-5 melanoma = test system: SK-MEL-5 melanoma
MOLT-4 leukemia = test system: MOLT-4 leukemia
786-0 renal = test system: 786-0 renal
NCI-H23 lung = test system: NCI-H23 lung
MDA-MB-231 breast = test system: MDA-MB-231 breast
UO-31 renal = test system: UO-31 renal
HCT-116 colon = test system: HCT-116 colon
NCI/ADR-RES ovarian = test system: NCI/ADR-RES ovarian
SK-MEL-28 melanoma = test system: SK-MEL-28 melanoma
ACHN renal = test system: ACHN renal
RXF 393 renal = test system: RXF 393 renal
NCI-H226 lung = test system: NCI-H226 lung
HS 578T breast = test system: HS 578T breast
PC-3 prostate = test system: PC-3 prostate
U251 CNS = test system: U251 CNS
K-562 leukemia = test system: K-562 leukemia
OVCAR-4 ovarian = test system: OVCAR-4 ovarian
SNB-75 CNS = test system: SNB-75 CNS
SK-MEL-2 melanoma = test system: SK-MEL-2 melanoma
NCI-H460 lung = test system: NCI-H460 lung
T-47D breast = test system: T-47D breast
SR leukemia = test system: SR leukemia
DU-145 prostate = test system: DU-145 prostate
KM12 colon = test system: KM12 colon
OVCAR-5 ovarian = test system: OVCAR-5 ovarian
HOP-92 NSCLC = test system: HOP-92 NSCLC
SF-539 CNS = test system: SF-539 CNS
SF-295 CNS = test system: SF-295 CNS
HCC-2998 colon = test system: HCC-2998 colon
OVCAR-3 ovarian = test system: OVCAR-3 ovarian
EKVX NSCLC = test system: EKVX NSCLC
HCT-15 colon = test system: HCT-15 colon
MDA-N = test system: MDA-N
COLO 205 colon = test system: COLO 205 colon
SK-OV-3 ovarian = test system: SK-OV-3 ovarian
SF-268 CNS = test system: SF-268 CNS

Compound: C=C(C)C(CC=C(C)C)Cc1c(O)cc(OC)c2c1OC(c1ccc(O)cc1O)C(O)C2=O (centres undefined)
- TGI (UACC-257 melanoma): 32.1 µM
- TGI (UACC-62 melanoma): 36.4 µM
- TGI (M14 melanoma): 36.5 µM
- TGI (CAKI-1 renal): 26.6 µM
- TGI (CCRF-CEM leukemia): > 100 µM
- TGI (MCF7 breast): 27 µM
- TGI (OVCAR-8 ovarian): 31.2 µM
- TGI (SN12C renal): 35.2 µM
- TGI (BT-549 breast): 28.5 µM
- TGI (HOP-62 NSCLC): 31 µM
- TGI (A498 renal): 30.7 µM
- TGI (HT29 colon): 38.2 µM
- TGI (NCI-H522 lung): 34.2 µM
- TGI (HL-60(TB) leukemia): > 100 µM
- TGI (MDA-MB-435): 35.9 µM
- TGI (RPMI-8226 leukemia): > 100 µM
- TGI (A549 NSCLC): 39.4 µM
- TGI (SW-620 colon): 30.3 µM
- TGI (SNB-19 CNS): 29.3 µM
- TGI (LOX IMVI melanoma): 36.1 µM
- TGI (TK-10 renal): 38.4 µM
- TGI (MALME-3M melanoma): 31.8 µM
- TGI (IGROV1 ovarian): 28.1 µM
- TGI (SK-MEL-5 melanoma): 33.1 µM
- TGI (MOLT-4 leukemia): > 100 µM
- TGI (786-0 renal): 32.3 µM
- TGI (NCI-H23 lung): 33.6 µM
- TGI (MDA-MB-231 breast): 34.1 µM
- TGI (UO-31 renal): 29.5 µM
- TGI (HCT-116 colon): 34.5 µM
- TGI (NCI/ADR-RES ovarian): 55.8 µM
- TGI (SK-MEL-28 melanoma): 56.2 µM
- TGI (ACHN renal): 43.2 µM
- TGI (RXF 393 renal): 43.6 µM
- TGI (NCI-H226 lung): 44.7 µM
- TGI (HS 578T breast): 79.4 µM
- TGI (PC-3 prostate): 26.3 µM
- TGI (U251 CNS): 27.6 µM
- TGI (K-562 leukemia): > 100 µM
- TGI (OVCAR-4 ovarian): 38.4 µM
- TGI (SNB-75 CNS): 31.5 µM
- TGI (SK-MEL-2 melanoma): 34.7 µM
- TGI (NCI-H460 lung): 33.9 µM
- TGI (T-47D breast): 32.4 µM
- TGI (SR leukemia): > 100 µM
- TGI (DU-145 prostate): 32.4 µM
- TGI (KM12 colon): 24.6 µM
- TGI (OVCAR-5 ovarian): 32.4 µM
- TGI (HOP-92 NSCLC): 28 µM
- TGI (SF-539 CNS): 31.4 µM
- TGI (SF-295 CNS): 28.2 µM
- TGI (HCC-2998 colon): 30.6 µM
- TGI (OVCAR-3 ovarian): 34.8 µM
- TGI (EKVX NSCLC): 31.1 µM
- TGI (HCT-15 colon): 31.1 µM
- TGI (MDA-N): 28.1 µM
- TGI (COLO 205 colon): 30 µM
- TGI (SK-OV-3 ovarian): 30.5 µM
- TGI (SF-268 CNS): 61.1 µM
